Measurements: the Kinase Knowledgebase extract (Sharma et al. 2016)

The compounds below were run against PIK3CG (human) (UniProt P48736) (assay: Inhibition of PIK3CG Kinase Activity).
Sequence of PIK3CG (human) (P48736 whole entry, looked up): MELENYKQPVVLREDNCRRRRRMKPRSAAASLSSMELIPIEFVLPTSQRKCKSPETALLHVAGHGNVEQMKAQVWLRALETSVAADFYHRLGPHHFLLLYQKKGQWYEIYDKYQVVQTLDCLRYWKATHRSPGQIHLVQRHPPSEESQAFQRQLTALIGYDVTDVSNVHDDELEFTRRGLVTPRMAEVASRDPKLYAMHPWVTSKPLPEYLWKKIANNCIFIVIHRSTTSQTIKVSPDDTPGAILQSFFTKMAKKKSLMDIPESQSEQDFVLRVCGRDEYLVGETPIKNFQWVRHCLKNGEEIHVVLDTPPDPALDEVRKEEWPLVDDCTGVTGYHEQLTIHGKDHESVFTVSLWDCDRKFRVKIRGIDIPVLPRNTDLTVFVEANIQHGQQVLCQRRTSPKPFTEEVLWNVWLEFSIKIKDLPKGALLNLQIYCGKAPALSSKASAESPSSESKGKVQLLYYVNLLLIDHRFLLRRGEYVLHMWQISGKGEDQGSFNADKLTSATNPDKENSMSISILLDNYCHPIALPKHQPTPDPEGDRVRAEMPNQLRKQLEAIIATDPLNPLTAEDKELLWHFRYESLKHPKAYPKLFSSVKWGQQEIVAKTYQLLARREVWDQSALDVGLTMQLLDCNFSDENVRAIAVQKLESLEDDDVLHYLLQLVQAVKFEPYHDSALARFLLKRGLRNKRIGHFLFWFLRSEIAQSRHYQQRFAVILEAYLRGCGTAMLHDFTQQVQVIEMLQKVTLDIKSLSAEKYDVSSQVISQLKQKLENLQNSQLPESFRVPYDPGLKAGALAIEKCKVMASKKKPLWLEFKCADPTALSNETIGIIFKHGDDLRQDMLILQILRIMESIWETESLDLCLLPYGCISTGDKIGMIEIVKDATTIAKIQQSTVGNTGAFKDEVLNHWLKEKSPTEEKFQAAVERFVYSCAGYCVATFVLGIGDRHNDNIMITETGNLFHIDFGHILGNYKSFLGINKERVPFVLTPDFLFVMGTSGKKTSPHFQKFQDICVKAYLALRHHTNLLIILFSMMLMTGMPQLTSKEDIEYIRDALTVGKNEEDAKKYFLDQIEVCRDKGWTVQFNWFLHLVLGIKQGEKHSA

| Compound | Ki [µM] |
| --- | --- |
| COc1cc(OC)cc(-c2cc(C)c3c(n2)CN(c2cnn(C(C)(C)C#N)c2)C3=O)c1 | < 0.1 |
| COc1cc(-c2cc(C)c3c(n2)CN(c2ccc(C)s2)C3=O)cnc1OC | < 0.1 |
| CCOc1cncc(-c2cc(C)c3c(n2)C(C)(C)N(c2cnn(COCCOC)c2)C3=O)c1 | 0.1 to 0.49 |
| COc1cc(-c2ccc3c(n2)CN(c2ccn(C)n2)C3=O)cnc1OC | < 0.1 |
| COc1cc(-c2ccc3c(n2)[C@H](C)N(c2cc[nH]n2)C3=O)cnc1OC | < 0.1 |
| CCOc1cncc(-c2cc(C)c3c(n2)[C@](C)(OC)N(c2cnn(CC(F)(F)F)c2)C3=O)c1 | < 0.1 |
| CCc1cc(N2Cc3nc(-c4cnc(OC)c(OC)c4)ccc3C2=O)nn1C[C@H](C)O | < 0.1 |
| CCNC(=O)c1cncc(-c2cc(C)c3c(n2)CN(c2ccn([C@H]4CCOC4)n2)C3=O)c1 | 0.1 to 0.49 |
| Cc1cc(-c2cncc(C(=O)O)c2)nc2c1C(=O)N(c1ccn([C@H]3CCOC3)n1)C2 | < 0.1 |
| COCc1cc(N2Cc3nc(-c4cnc(OC)c(OC)c4)ccc3C2=O)nn1C[C@H](C)O | < 0.1 |
| Cc1cc(-c2cncc(S(=O)(=O)N(C)C)c2)nc2c1C(=O)N(c1cnn(CC(F)(F)F)c1)C2(C)C | < 0.1 |
| Cc1cc(-c2cncc(NS(=O)(=O)N(C)C)c2)nc2c1C(=O)N(c1cnn(CC(F)(F)F)c1)C2(C)C | < 0.1 |
| COc1cc(-c2ccc3c(c2)CN(c2cc(C4CC4)[nH]n2)C3=O)cnc1OC | < 0.1 |
| COc1cncc(-c2cc(C)c3c(n2)C(C)(C)N(c2ccn([C@@H]4CCOC4)n2)C3=O)c1 | 0.1 to 0.49 |
| Cc1cc(-c2cncc(C(=O)NC(C)C)c2)nc2c1C(=O)N(c1cnn(CC(F)(F)F)c1)C2(C)C | < 0.1 |
| Cc1cc(-c2cncc(S(C)(=O)=O)c2)nc2c1C(=O)N(c1cnn(CC(F)(F)F)c1)[C@H]2C | < 0.1 |
| COc1cc(-c2ccc3c(n2)CN(c2ccsc2)C3=O)cnc1OC | < 0.1 |
| CCn1ccc(N2C(=O)c3ccc(-c4cnc(OC)c(OC)c4)nc3[C@@H]2C)n1 | < 0.1 |
| COc1cncc(-c2cc(C)c3c(n2)C(C)N(c2cn[nH]c2)C3=O)c1 (stereo not drawn) | < 0.1 |
| Cc1cc(-c2cncc(OC3CC3)c2)nc2c1C(=O)N(c1cnn(CC(F)(F)F)c1)C2(C)C | < 0.1 |

| Compound | Ki [µM] |
| --- | --- |
| Cc1cc(-c2cnc3ccccc3c2)nc2c1C(=O)N(c1cn[nH]c1)C2 | 0.1 to 0.49 |
| Cc1cc(-c2cncc(OCC(F)F)c2)nc2c1C(=O)N(c1cnn(CC(F)(F)F)c1)[C@H]2C | < 0.1 |
| COc1cncc(-c2cc(C)c3c(n2)[C@@H](C)N(c2ccn(C)n2)C3=O)c1 | < 0.1 |
| COCCn1ccc(N2Cc3nc(-c4cnc(OC)c(OC)c4)ccc3C2=O)n1 | 0.1 to 0.49 |
| Cc1cc(-c2cncc(Cl)c2)nc2c1C(=O)N(c1cnn(CC#N)c1)C2 | < 0.1 |
| Cc1cc(-c2cncc(OCC(F)F)c2)nc2c1C(=O)N(c1cnn(CC(F)F)c1)C2(C)C | < 0.1 |
| COCCOc1ncc(-c2cc(C)c3c(n2)[C@@H](C)N(c2ccn(C)n2)C3=O)cc1OC | < 0.1 |
| Cc1cc(-c2cncc(OC(F)F)c2)nc2c1C(=O)N(c1cnn(C[C@@H](C)O)c1)C2 | < 0.1 |
| CCn1ccc(N2C(=O)c3c(C)cc(-c4cncc(OCC(F)F)c4)nc3[C@@H]2C)n1 | 0.1 to 0.49 |
| COc1cncc(-c2cc(C)c3c(n2)C(C)(C)N(c2cnn(CC#N)c2)C3=O)c1 | < 0.1 |
| COc1cc(-c2ccc3c(c2)CN(c2ccnc(C)c2)C3=O)cnc1OC | 0.1 to 0.49 |
| COc1cc(-c2ccc3c(c2)CN(c2cccc(C(N)=O)c2)C3=O)cnc1OC | < 0.1 |
| COc1cncc(-c2cc(C)c3c(n2)CN(c2ccn(CC(C)(C)F)n2)C3=O)c1 | < 0.1 |
| COc1cncc(-c2cc(C)c3c(n2)CN(c2ccn(C4COC4)n2)C3=O)c1 | < 0.1 |
| CCNC(=O)c1cc(-c2cc(C)c3c(n2)C(C)(C)N(c2cnn(CC(F)(F)F)c2)C3=O)cnc1C | < 0.1 |
| COc1cc(OC)cc(-c2cc(C)c3c(n2)[C@@H](C)N(c2cnn(CC(F)(F)F)c2)C3=O)c1 | < 0.1 |
| C=C(F)Cn1cc(N2C(=O)c3c(C)cc(-c4cncc(OC)c4)nc3C2(C)C)cn1 | < 0.1 |
| COc1cc(-c2ccc3c(c2)CN(c2csc(C)c2)C3=O)cnc1OC | 0.1 to 0.49 |
| COc1ncc(-c2ccc3c(n2)CN(c2cnn(CC#N)c2)C3=O)cn1 | 0.1 to 0.49 |
| Cc1cc(-c2cncc(CO)c2)cc2c1C(=O)N(c1cnn(CC(F)(F)F)c1)C2C (stereo not drawn) | < 0.1 |

The next lines start with the values.

| Ki [µM] | Compound |
| --- | --- |
| < 0.1 | COc1cc(-c2cc(C)c3c(n2)CN(c2ccnc(C#N)c2)C3=O)cnc1OC |
| < 0.1 | COc1cc(-c2cc(C)c3c(n2)[C@H](C)N(c2cnn(CC(F)(F)F)c2)C3=O)cnc1C |
| < 0.1 | COc1ncc(-c2cc(C)c3c(n2)C(C)(C)N(c2cnn(CC(F)(F)F)c2)C3=O)cc1C(=O)NC1CC1 |
| < 0.1 | COc1ncc(-c2cc(C)c3c(n2)C(C)(C)N(c2cnn(CC(F)(F)F)c2)C3=O)cc1C(=O)O |
| < 0.1 | CC[C@]1(OC)c2nc(-c3cnc(OC)c(OC)c3)cc(C)c2C(=O)N1c1cnn(CC(F)(F)F)c1 |
| < 0.1 | COc1cc(-c2cc(N3CCC3)c3c(n2)CN(c2cnn(CC(F)(F)F)c2)C3=O)cnc1OC |
| < 0.1 | COCCOc1ncc(-c2ccc3c(n2)CN(c2cnn(CC#N)c2)C3=O)cc1OC |
| 0.1 to 0.49 | CC[C@H]1c2nc(-c3cnc(OC)c(OC)c3)ccc2C(=O)N1c1cnn(CC(F)(F)F)c1 |
| 0.1 to 0.49 | CC#CCn1cc(N2Cc3cc(-c4cnc(OC)c(OC)c4)ccc3C2=O)cn1 |
| < 0.1 | COc1cc(-c2cc(C)c3c(n2)C(O)N(c2cnn(CC(F)(F)F)c2)C3=O)cnc1OC (stereo not drawn) |
| < 0.1 | COc1cc(-c2cc(C)c3c(n2)CN(c2ccn(C)n2)C3=O)cnc1OC |
| 0.1 to 0.49 | COc1cc(-c2ccc3c(n2)CN(c2ccc(N4CCOCC4)nc2)C3=O)cnc1OC |
| < 0.1 | COc1ccc(-c2cc(C)c3c(n2)CN(c2cnn(CC(F)(F)F)c2)C3=O)nc1OC |
| < 0.1 | COc1cc(-c2ccc3c(n2)[C@H](C)N(c2cnn(CC(C)(C)O)c2)C3=O)cnc1OC |
| < 0.1 | CCOc1ncc(-c2cc(C)c3c(c2)CN(c2cnn(CC(F)(F)F)c2)C3=O)cc1OC |
| < 0.1 | COc1cccc(-c2cc(C)c3c(n2)CN(c2cnn(CC(F)(F)F)c2)C3=O)n1 |
| < 0.1 | CCNC(=O)c1cc(-c2cc(C)c3c(n2)C(C)N(c2cnn(CC(F)(F)F)c2)C3=O)cnc1OC (stereo not drawn) |
| < 0.1 | C=C1c2nc(-c3cnc(OC)c(OC)c3)ccc2C(=O)N1c1cnn(CC(F)(F)F)c1 |
| 0.1 to 0.49 | COc1cc(-c2ccc3c(c2)CN(c2cnn(CCO)c2)C3=O)cnc1OC |
| < 0.1 | COc1cc(-c2cc(C)c3c(n2)C(OC(C)C)N(c2cnn(CC(F)(F)F)c2)C3=O)cnc1OC (stereo not drawn) |
| < 0.1 | COc1cc(-c2cc(C)c3c(n2)[C@H](C)N(c2cnn(C[C@@H](C)O)c2)C3=O)cnc1OC |
| < 0.1 | COc1ncc(-c2cc(C)c3c(n2)CN(c2cnn(CC(F)(F)F)c2)C3=O)cc1OCC(F)F |
| < 0.1 | COc1cc(-c2cc(Cl)c3c(n2)CN(c2cnn(CC#N)c2)C3=O)cnc1OC |
| 0.1 to 0.49 | COc1cc(-c2ccc3c(n2)CN(c2cnn(CCN4CCN(C(C)=O)CC4)c2)C3=O)cnc1OC |
| < 0.1 | COc1cc(-c2cc(C)c3c(n2)CN(c2cnn(CC(F)(F)F)c2)C3=O)cc(OC)n1 |
| < 0.1 | COc1cc(-c2ccc3c(n2)CN(c2cnn(CC(F)F)c2)C3=O)cnc1OC |
| < 0.1 | CCC1(O)c2nc(-c3cnc(OC)c(OC)c3)cc(C)c2C(=O)N1c1cnn(CC(F)(F)F)c1 (stereo not drawn) |
| < 0.1 | COc1ccc(-c2cc(C)c3c(n2)CN(c2cnn(CC(F)(F)F)c2)C3=O)s1 |
